For data set [1], the system named is small model bacterial inoculation. The conditions noted are these: cited from earlier work.
Another data set deals with fibroblasts. The conditions noted are these: cited from earlier work.
A further data set deals with keratinocytes. Particulars: cited from earlier work.
A further data set relates to mouse. The conditions noted are these: in vivo, ip.

The text below walks through data of patent publication US12728181B2, “Solution blow spun polymer constructs, compositions and methods of fabrications and uses relating thereto” (University of Maryland, College Park, priority 2019, dated 2026).

From the text for mouse: To determine the potential immune response to the fast-degrading components of the PSTA, we employed an intraperitoneal space implantation mouse model used to evaluate fibrosis (Doloff, J. C. et al. (2017) Colony Stimulating Factor-1 Receptor Is a Central Component of the Foreign Body Response to Biomaterial Implants in Rodents and Non-Human Primates, Nat. Mater. 16(6):671).

As to `[Ag+]` [Ag^+], in data set [1] (inoculation of the same size), the “minimum inhibitory concentration (MIC)” value is “about 5 μM”. In addition, the “minimum bactericidal concentration (MBC)” value in data set [1] (small model bacterial inoculation) is “approximately 20 μM”. For the same compound, the “24 hour cytotoxic limit (FCC)” value in the data set on fibroblasts was “approximately 50 μM”. For the same compound, the “24 hour cytotoxic limit (KCC)” value with keratinocytes is 500 µM.

As for “poly(lactide-co-caprolactone) [LMW PLCL]”, the “fibrotic adhesions to the fat pads” value in the data set on mouse is recorded as “no adhesions to the fat pad”.
